The text below walks through data of ChEMBL document CHEMBL1133758, “Docking-based development of purine-like inhibitors of cyclin-dependent kinase-2” (J Med Chem, 2000).

In experiment [1] the target is Cyclin-dependent kinase 2 (Homo sapiens, UniProt P24941). Kind of experiment: Inhibition of Cyclin-dependent kinase 2.
In experiment [2] the target is Cyclin-dependent kinase 1 (Homo sapiens, UniProt P06493). Kind of experiment: Inhibition of Cyclin-dependent kinase 1.
Chain of Cyclin-dependent kinase 1 (P06493 whole entry): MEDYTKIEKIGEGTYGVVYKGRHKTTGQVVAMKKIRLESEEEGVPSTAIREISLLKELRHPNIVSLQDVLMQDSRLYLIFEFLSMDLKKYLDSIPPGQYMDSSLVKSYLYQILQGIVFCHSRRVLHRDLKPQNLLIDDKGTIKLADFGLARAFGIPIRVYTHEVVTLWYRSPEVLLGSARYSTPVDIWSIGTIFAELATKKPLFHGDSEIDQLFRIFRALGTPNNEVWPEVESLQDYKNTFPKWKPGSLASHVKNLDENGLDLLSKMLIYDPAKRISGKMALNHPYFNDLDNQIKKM

In the case of `CC(C)n1cnc2c(NCc3ccccc3)nc(NC[C@@H](C)O)nc21`, the IC50 (in general, the concentration at which inhibition is half-maximal) in experiment [1] amounted to 0.2 µM.
As to `CC(C)n1cnc2c(N)nc(NCCCO)nc21`, the IC50 in experiment [2] amounted to 10 µM; in experiment [1] it was 2.4 µM.
For `CC(C)n1cnc2c(NC34CC5CC(CC(C5)C3)C4)nc(NCCCO)nc21` the same measures were greater than 100 µM and greater than 100 µM.
For the compound `CC(C)C(CO)Nc1nc(NCc2cccc(O)c2)c2ncn(C(C)C)c2n1` (stereo unspecified), the IC50 in experiment [1] amounted to 0.03 µM.
Regarding `CC(C)n1cnc2c(NCc3ccccc3)ncnc21`, the figures for the IC50 in experiment [2] and in experiment [1] were 3.5 µM and 4.5 µM, respectively.
Turning to `CC(C)n1cnc2c(NCc3ccccc3)nc(NCCCO)nc21` [BOHEMINE], in experiment [1], the IC50 is 0.8 µM.
With `CC(C)n1cnc2c(NC3CCCC3)nc(NCCCO)nc21`, the IC50 in experiment [2] worked out at 2.4 µM; in experiment [1], 0.9 µM.
